Assay [1] concerns the target T1, TAS2R14 (Homo sapiens, UniProt Q9NYV8).
T1 sequence (Q9NYV8 1-317): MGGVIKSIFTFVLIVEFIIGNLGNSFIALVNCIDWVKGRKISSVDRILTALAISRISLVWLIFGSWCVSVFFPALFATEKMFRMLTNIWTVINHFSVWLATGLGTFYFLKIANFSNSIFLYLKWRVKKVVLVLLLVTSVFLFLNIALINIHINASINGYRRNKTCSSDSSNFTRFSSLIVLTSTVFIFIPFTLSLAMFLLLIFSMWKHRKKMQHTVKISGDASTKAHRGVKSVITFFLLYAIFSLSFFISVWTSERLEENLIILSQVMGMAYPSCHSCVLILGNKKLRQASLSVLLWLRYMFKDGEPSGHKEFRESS
Briefly: cell-based. Also on record: species or system 293AD; bioluminescence intracellular calcium release assay, mt-clytin II with coelenterazine, Gα16-gust44 co-expressed.
Procedure: The bioluminescence-based assay was used to characterize the functional properties of various human TAS2Rs. For each TAS2R, one or more of its cognate agonists were tested against either the AD-293 or 293AD cell line, or both. […] We adopted this approach, specifically co-expressing SST3-TAS2R with Gα16-gust44 chimera and mt-clytin II, to develop and validate a bioluminescence-based TAS2R intracellular calcium release assay.

For assay [2], the target named is T2, TAS2R16 (Homo sapiens, UniProt Q9NYV7).
T2 sequence (Q9NYV7 1-291): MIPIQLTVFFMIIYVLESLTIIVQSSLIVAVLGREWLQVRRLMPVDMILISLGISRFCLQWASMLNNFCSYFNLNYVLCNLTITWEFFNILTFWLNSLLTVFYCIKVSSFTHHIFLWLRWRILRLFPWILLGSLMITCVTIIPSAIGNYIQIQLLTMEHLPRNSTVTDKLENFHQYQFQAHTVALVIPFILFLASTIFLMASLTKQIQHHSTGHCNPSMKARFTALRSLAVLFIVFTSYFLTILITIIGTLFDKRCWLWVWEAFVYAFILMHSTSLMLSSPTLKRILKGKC
The assay can be described thus: cell-based. Also on record: bioluminescence intracellular calcium release assay, mt-clytin II with coelenterazine, Gα16-gust44 co-expressed. Here is the method: (§1) The bioluminescence-based assay was used to characterize the functional properties of various human TAS2Rs. For each TAS2R, one or more of its cognate agonists were tested against either the AD-293 or 293AD cell line, or both. Both cell lines were used because of their stronger adherent properties, which facilitate media changes on the day of the FLIPR assay. However, because both cell lines are generated differently, some disparities in gene expression capacities due to a myriad of factors could be reasonably expected. Consequently, some TAS2Rs may be well expressed in one cell line but not the other, and the ability of each cell line to express a particular TAS2R needs to be empirically evaluated. […] However, deviations between our experimental and published potency values for some ligands (i.e. TAS2R4: stevioside; TAS2R7: Mg^2+, Mn^2+, Zn^2+) were observed, which could be attributed to the use of a different assay format, readout and processing parameters, use of different cell lines with resultant potential differences in TAS2R expression levels, and quality and methodological differences in ligand preparations. Because potency values could be obtained that were consistent with the literature, or close to the reported minimal effective stimulatory concentration upon further testing of other TAS2R4/7 agonists, the deviation in EC50 values could be largely attributed to qualitative differences in the ligands (Supplementary Fig. S3). Calcium responses induced by the tested cognate agonists reflected specific TAS2R stimulation. […] Poor localization of TAS2Rs to the cell surface in heterologous systems was associated with diminished receptor signaling output and functionality. One of the more commonly used strategies to enhance the density of TAS2Rs at the cell surface involves fusing an N-terminal signal sequence of either the SST3, or Rho receptor to the TAS2R[24]. We adopted this approach, specifically co-expressing SST3-TAS2R with Gα16-gust44 chimera and mt-clytin II, to develop and validate a bioluminescence-based TAS2R intracellular calcium release assay. A strength of the bioluminescence-based TAS2R assay is its capacity to generate greater assay spans than that of fluorescence-based assays, which could be largely attributed to the utilization of mt-clytin II as the calcium reporter. Calcium-binding photoproteins in general are useful reporters for studying calcium-mediated signaling processes. […] Its fast calcium binding and dissociation kinetics render it a suitable indicator to report on swift, transient changes in calcium ion concentrations and study rapid receptor-ligand interactions. Mitochondrial targeting of clytin II was crucial to generating higher luminescence intensity than that of cytosol-localized clytin II, as inositol 1,4,5-triphosphate (IP3)-induced calcium release from the ER subsequent to ligand activation is thought to result in the formation of ER-proximal, calcium-rich microdomains that enabled the closely apposed mitochondria to sense a higher initial rise in calcium concentration than would be experienced by the bulk cytosol.

Assay [3] concerns the target T3, TAS2R20 (Homo sapiens, UniProt P59543).
T3 sequence (P59543 1-309): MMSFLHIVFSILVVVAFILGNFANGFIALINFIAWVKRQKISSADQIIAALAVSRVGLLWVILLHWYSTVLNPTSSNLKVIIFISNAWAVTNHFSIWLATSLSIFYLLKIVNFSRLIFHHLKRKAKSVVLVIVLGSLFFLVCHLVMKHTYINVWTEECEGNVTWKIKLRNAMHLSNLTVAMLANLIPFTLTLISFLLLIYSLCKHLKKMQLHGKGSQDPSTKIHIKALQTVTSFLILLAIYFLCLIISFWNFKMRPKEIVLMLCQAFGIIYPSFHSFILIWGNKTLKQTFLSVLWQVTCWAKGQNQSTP
The assay can be described thus: cell-based. Further details: bioluminescence intracellular calcium release assay, mt-clytin II with coelenterazine, Gα16-gust44 co-expressed. Here is the method: as §1

Assay [4] deals with T4, TAS2R8 (Homo sapiens, UniProt Q9NYW2).
T4 sequence (Q9NYW2 1-309): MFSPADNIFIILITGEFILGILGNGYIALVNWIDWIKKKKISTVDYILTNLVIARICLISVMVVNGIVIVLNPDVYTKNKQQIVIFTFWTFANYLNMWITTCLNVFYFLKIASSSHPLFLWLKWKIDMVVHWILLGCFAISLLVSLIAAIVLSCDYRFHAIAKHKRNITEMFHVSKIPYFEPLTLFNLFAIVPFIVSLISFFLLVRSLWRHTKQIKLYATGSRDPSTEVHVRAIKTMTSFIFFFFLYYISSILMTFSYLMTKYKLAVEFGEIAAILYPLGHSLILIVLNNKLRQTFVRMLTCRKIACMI
The assay can be described thus: cell-based. Further details: bioluminescence intracellular calcium release assay, mt-clytin II with coelenterazine, Gα16-gust44 co-expressed. Here is the method:
as §1

The target of assay [5] is T5, TAS2R43 (Homo sapiens, UniProt P59537).
T5 construct: AD-293 cells; co-expressed Galpha16-gust44 chimera and mt-clytin II reporter (type 2 multigene vector)
T5 sequence (P59537 2-309): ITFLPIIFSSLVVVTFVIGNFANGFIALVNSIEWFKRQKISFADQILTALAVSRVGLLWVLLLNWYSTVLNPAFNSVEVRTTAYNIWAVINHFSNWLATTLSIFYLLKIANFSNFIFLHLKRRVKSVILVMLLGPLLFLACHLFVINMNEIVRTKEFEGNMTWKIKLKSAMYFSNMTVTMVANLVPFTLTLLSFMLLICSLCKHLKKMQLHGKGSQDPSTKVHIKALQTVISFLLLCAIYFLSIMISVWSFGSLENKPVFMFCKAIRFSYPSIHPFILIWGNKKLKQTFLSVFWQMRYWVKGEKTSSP
The assay can be described thus: bioluminescence (mt-clytin II) intracellular calcium release. Format: cell-based. The text has this:
bioluminescence (mt-clytin II) intracellular calcium release on TAS2R43 | TAS2R43, both aristolochic acid and aloin could be considered full agonists | indicating the partial agonist activity of caffeine towards TAS2R43
On the technique in general: A change in cytosolic calcium serves as a functional read-out for many receptors and channels.

For assay [6], the target named is T6, TAS2R30 (Homo sapiens, UniProt P59541).
T6 sequence (P59541 1-319): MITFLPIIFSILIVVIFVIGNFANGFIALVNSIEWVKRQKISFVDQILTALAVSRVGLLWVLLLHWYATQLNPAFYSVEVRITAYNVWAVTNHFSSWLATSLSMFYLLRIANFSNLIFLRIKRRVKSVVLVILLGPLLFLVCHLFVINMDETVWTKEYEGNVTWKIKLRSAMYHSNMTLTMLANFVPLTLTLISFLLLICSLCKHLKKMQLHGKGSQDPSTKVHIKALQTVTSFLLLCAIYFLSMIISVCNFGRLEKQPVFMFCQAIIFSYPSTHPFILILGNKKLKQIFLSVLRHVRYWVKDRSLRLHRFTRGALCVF
The assay can be described thus: cell-based. Further details: bioluminescence intracellular calcium release assay, mt-clytin II with coelenterazine, Gα16-gust44 co-expressed. The conditions noted are these: 293AD cells. The method, then:
as §1

Assay [7] deals with T7, TAS2R13 (Homo sapiens, UniProt Q9NYV9).
T7 sequence (Q9NYV9 1-303): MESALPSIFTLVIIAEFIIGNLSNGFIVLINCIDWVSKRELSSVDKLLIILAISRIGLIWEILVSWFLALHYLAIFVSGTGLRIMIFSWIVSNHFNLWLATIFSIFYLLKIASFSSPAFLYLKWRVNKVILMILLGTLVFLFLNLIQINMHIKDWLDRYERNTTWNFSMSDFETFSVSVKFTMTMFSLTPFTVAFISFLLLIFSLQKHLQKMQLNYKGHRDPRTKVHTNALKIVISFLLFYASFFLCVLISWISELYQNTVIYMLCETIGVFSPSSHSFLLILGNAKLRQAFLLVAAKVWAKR
The assay can be described thus: cell-based. Further details: bioluminescence intracellular calcium release assay, mt-clytin II with coelenterazine, Gα16-gust44 co-expressed. The conditions noted are these: 293AD cells. The method, then: as §1

For assay [8], the target named is T8, TAS2R10 (Homo sapiens, UniProt Q9NYW0).
T8 sequence (Q9NYW0 1-307): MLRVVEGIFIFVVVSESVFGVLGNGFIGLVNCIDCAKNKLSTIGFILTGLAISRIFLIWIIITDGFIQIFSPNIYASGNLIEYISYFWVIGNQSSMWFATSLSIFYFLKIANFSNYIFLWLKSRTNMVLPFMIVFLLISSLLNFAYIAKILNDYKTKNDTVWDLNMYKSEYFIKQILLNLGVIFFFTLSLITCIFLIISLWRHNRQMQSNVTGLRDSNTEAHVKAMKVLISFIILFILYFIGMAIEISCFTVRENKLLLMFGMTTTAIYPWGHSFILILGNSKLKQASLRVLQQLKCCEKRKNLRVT
Briefly: cell-based. Also on record: bioluminescence intracellular calcium release assay, mt-clytin II with coelenterazine, Gα16-gust44 co-expressed. Here is the method: as §1

The target in assay [9] is T9, TAS2R9 (Homo sapiens, UniProt Q9NYW1).
T9 sequence (Q9NYW1 1-312): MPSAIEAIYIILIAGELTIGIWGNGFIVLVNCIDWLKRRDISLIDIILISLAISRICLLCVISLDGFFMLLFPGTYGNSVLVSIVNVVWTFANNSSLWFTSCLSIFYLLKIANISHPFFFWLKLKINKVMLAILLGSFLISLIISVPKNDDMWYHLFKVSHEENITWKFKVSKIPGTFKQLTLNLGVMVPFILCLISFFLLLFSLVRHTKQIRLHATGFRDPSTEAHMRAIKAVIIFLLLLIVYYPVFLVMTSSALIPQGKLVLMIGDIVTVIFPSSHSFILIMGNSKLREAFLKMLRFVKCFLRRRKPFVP
The assay can be described thus: cell-based. Also on record: bioluminescence intracellular calcium release assay, mt-clytin II with coelenterazine, Gα16-gust44 co-expressed. The conditions noted are these: 293AD cells. Here is the method: as §1

Experimental findings from PMC9587021, “Construction of a bioluminescence-based assay for bitter taste receptors (TAS2Rs)” (Scientific Reports, 2022) are described below.

The EC50 is the concentration that produces a half-maximal response.

As for `C=C(C)[C@@H]1[C@H]2OC(=O)[C@@H]1[C@]1(O)C[C@H]3O[C@]34C(=O)O[C@H]2[C@]14C` [Picrotoxinin], the 50% effective concentration (EC50) in assay [1] is 54 ± 8.4 µM.

On to `OCc1ccccc1O[C@@H]1O[C@H](CO)[C@@H](O)[C@H](O)[C@H]1O` [Salicin], for which the EC50 in assay [2] (293AD cells) was found to be 400 ± 200 µM; in assay [2] (AD-293 cells) it was 2000 ± 600 µM.

Consider `O=C(O)c1cc(=O)c2c(OCC(O)COc3cccc4oc(C(=O)O)cc(=O)c34)cccc2o1` [Cromolyn], for which the EC50 was determined as 35 ± 7 µM in [3] (293AD cells) and 73 ± 26 µM in [3] (AD-293 cells).

As to `O=Cc1ccccc1O[C@@H]1O[C@H](CO)[C@@H](O)[C@H](O)[C@H]1O` [Helicin], the 50% effective concentration (EC50) in assay [2] (AD-293 cells) is 3000 ± 200 µM.

With `O=C(N[C@H](CO)[C@H](O)c1ccc([N+](=O)[O-])cc1)C(Cl)Cl` [Chloramphenicol], the EC50 in assay [4] (293AD cells) stood at 18 ± 2.7 µM; in assay [4] (AD-293 cells) it was 70 ± 12 µM.

`Cn1c(=O)c2c(ncn2C)n(C)c1=O` [caffeine]: the EC50 in assay [5] came to 390 ± 120 µM.

As for `C=C[C@H]1[C@H](O[C@@H]2O[C@H](CO)[C@@H](O)[C@H](O)[C@H]2OC(=O)c2c(O)cc(O)cc2-c2cccc(O)c2)OC=C2C(=O)OCC[C@H]21` [Amarogentin], the EC50 in [6] worked out at 3 ± 1 µM.

Regarding `COc1cccc2c1cc([N+](=O)[O-])c1c(C(=O)O)cc3c(c12)OCO3` [aristolochic acid], the concentration for a half-maximal effect (EC50) in [5] turned out to be 0.026 ± 0.003 µM.

In the case of `O=C1c2c(O)cccc2C([C@@H]2O[C@H](CO)[C@@H](O)[C@H](O)[C@H]2O)c2cc(CO)cc(O)c21` (stereo partly drawn) [aloin], the EC50 in [5] was 5 ± 3 µM.

With `CC[N+](C)(CC)CCOC(=O)C(O)(c1ccccc1)C1CCCCC1` (stereo not drawn) [Oxyphenonium], in [7], the EC50 was 161 ± 16 µM.

As for `OC[C@H]1O[C@@H](Oc2ccc(O)cc2)[C@H](O)[C@@H](O)[C@@H]1O` [Arbutin], in assay [2] (AD-293 cells), the EC50 turned out to be 5000 ± 1200 µM.

For the compound `CC[N+](CC)(CC(=O)Nc1c(C)cccc1C)Cc1ccccc1` [Denatonium benzoate], the EC50 in [4] (AD-293 cells) is 1000 ± 100 µM.

`COc1cc2c(cc1OC)[C@@]13CCN4CC5=CCO[C@H]6CC(=O)N2[C@H]1[C@H]6[C@H]5C[C@H]43` [Brucine]: the EC50 worked out at 21 ± 6.5 µM in assay [8] (293AD cells) and 42 ± 3 µM in assay [8] (AD-293 cells).

As to `CN1CCN(CC(=O)N2c3ccccc3C(=O)Nc3cccnc32)CC1` [Pirenzepine], the EC50 in [9] came to 4000 ± 400 µM.
